From ChEMBL document CHEMBL5724914, “Linking interpersonal differences in gut microbiota composition and drug biotransformation activity” (2024)

Conditions: human gut metagenome, 24 h, 2 µM
Further: call rule not given here.

Compound	Bacterial Biotransformation
CN(C)CCOC(C)(c1ccccc1)c1ccccn1.O=C(O)CCC(=O)O (stereo not given) [DOXYLAMINE SUCCINATE]	Compound NOT metabolized
Br.CN1CCC[C@@H]1Cc1c[nH]c2ccc(CCS(=O)(=O)c3ccccc3)cc12 [ELETRIPTAN HYDROBROMIDE]	Compound metabolized
CCOc1ccc2nc(S(N)(=O)=O)sc2c1 [ETHOXZOLAMIDE]	Compound NOT metabolized
CCc1cccc2c3c([nH]c12)C(CC)(CC(=O)O)OCC3 (stereo not given) [ETODOLAC]	Compound metabolized

Experiment: (§1) The drug is tested on Z-020 corresponding to rabbit gut metagenome with ENA study accession number: PRJEB37062 and ENA sample accession number: ERS12561819 for biotransformation under anaerobic condition. The drug concentrations were measured over 9 timepoints collected between 0 and 24 hours of incubation by liquid-chromatography-coupled mass spectrometry (LC–MS)
Conditions: 2 µM

Compound	Bacterial Biotransformation
CN(C)CCOC(C)(c1ccccc1)c1ccccn1.O=C(O)CCC(=O)O (stereo not given) [DOXYLAMINE SUCCINATE]	Compound NOT metabolized
Br.CN1CCC[C@@H]1Cc1c[nH]c2ccc(CCS(=O)(=O)c3ccccc3)cc12 [ELETRIPTAN HYDROBROMIDE]	Compound NOT metabolized
CCOc1ccc2nc(S(N)(=O)=O)sc2c1 [ETHOXZOLAMIDE]	Compound NOT metabolized
CCc1cccc2c3c([nH]c12)C(CC)(CC(=O)O)OCC3 (stereo not given) [ETODOLAC]	Compound NOT metabolized

Experiment: as §1, with “Z-026” for “Z-020”, “to” for “to rabbit gut”, “ERS12561825” for “ERS12561819”
Conditions: 2 µM

Compound	Bacterial Biotransformation
CN(C)CCOC(C)(c1ccccc1)c1ccccn1.O=C(O)CCC(=O)O (stereo not given) [DOXYLAMINE SUCCINATE]	Compound NOT metabolized
Br.CN1CCC[C@@H]1Cc1c[nH]c2ccc(CCS(=O)(=O)c3ccccc3)cc12 [ELETRIPTAN HYDROBROMIDE]	Compound NOT metabolized
CCOc1ccc2nc(S(N)(=O)=O)sc2c1 [ETHOXZOLAMIDE]	Compound NOT metabolized
CCc1cccc2c3c([nH]c12)C(CC)(CC(=O)O)OCC3 (stereo not given) [ETODOLAC]	Compound NOT metabolized

Conditions: human gut metagenome, 24 h, 2 µM
Remark: another data set of the same source

Compound	Bacterial Biotransformation
CN(C)CCOC(C)(c1ccccc1)c1ccccn1.O=C(O)CCC(=O)O (stereo not given) [DOXYLAMINE SUCCINATE]	Compound NOT metabolized
Br.CN1CCC[C@@H]1Cc1c[nH]c2ccc(CCS(=O)(=O)c3ccccc3)cc12 [ELETRIPTAN HYDROBROMIDE]	Compound metabolized
CCOc1ccc2nc(S(N)(=O)=O)sc2c1 [ETHOXZOLAMIDE]	Compound NOT metabolized
CCc1cccc2c3c([nH]c12)C(CC)(CC(=O)O)OCC3 (stereo not given) [ETODOLAC]	Compound metabolized

Conditions: human gut metagenome, 24 h, 2 µM
Remark: another data set of the same source

Compound	Bacterial Biotransformation
CN(C)CCOC(C)(c1ccccc1)c1ccccn1.O=C(O)CCC(=O)O (stereo not given) [DOXYLAMINE SUCCINATE]	Compound NOT metabolized
Br.CN1CCC[C@@H]1Cc1c[nH]c2ccc(CCS(=O)(=O)c3ccccc3)cc12 [ELETRIPTAN HYDROBROMIDE]	Compound NOT metabolized
CCOc1ccc2nc(S(N)(=O)=O)sc2c1 [ETHOXZOLAMIDE]	Compound NOT metabolized
CCc1cccc2c3c([nH]c12)C(CC)(CC(=O)O)OCC3 (stereo not given) [ETODOLAC]	Compound metabolized

Experiment: as §1, with “WLS-077” for “Z-020”, “human” for “rabbit”, “ERS12561750” for “ERS12561819”
Conditions: 2 µM

Compound	Bacterial Biotransformation
CN(C)CCOC(C)(c1ccccc1)c1ccccn1.O=C(O)CCC(=O)O (stereo not given) [DOXYLAMINE SUCCINATE]	Compound NOT metabolized
Br.CN1CCC[C@@H]1Cc1c[nH]c2ccc(CCS(=O)(=O)c3ccccc3)cc12 [ELETRIPTAN HYDROBROMIDE]	Compound NOT metabolized
CCOc1ccc2nc(S(N)(=O)=O)sc2c1 [ETHOXZOLAMIDE]	Compound NOT metabolized
CCc1cccc2c3c([nH]c12)C(CC)(CC(=O)O)OCC3 (stereo not given) [ETODOLAC]	Compound NOT metabolized

Conditions: human gut metagenome, 24 h, 2 µM
Remark: another data set of the same source

Compound	Bacterial Biotransformation
CN(C)CCOC(C)(c1ccccc1)c1ccccn1.O=C(O)CCC(=O)O (stereo not given) [DOXYLAMINE SUCCINATE]	Compound NOT metabolized
Br.CN1CCC[C@@H]1Cc1c[nH]c2ccc(CCS(=O)(=O)c3ccccc3)cc12 [ELETRIPTAN HYDROBROMIDE]	Compound metabolized
CCOc1ccc2nc(S(N)(=O)=O)sc2c1 [ETHOXZOLAMIDE]	Compound NOT metabolized
CCc1cccc2c3c([nH]c12)C(CC)(CC(=O)O)OCC3 (stereo not given) [ETODOLAC]	Compound metabolized

Experiment: as §1, with “Z-008” for “Z-020”, “to” for “to rabbit gut”, “ERS12561808” for “ERS12561819”
Conditions: 2 µM

Compound	Bacterial Biotransformation
CN(C)CCOC(C)(c1ccccc1)c1ccccn1.O=C(O)CCC(=O)O (stereo not given) [DOXYLAMINE SUCCINATE]	Compound NOT metabolized
Br.CN1CCC[C@@H]1Cc1c[nH]c2ccc(CCS(=O)(=O)c3ccccc3)cc12 [ELETRIPTAN HYDROBROMIDE]	Compound NOT metabolized
CCOc1ccc2nc(S(N)(=O)=O)sc2c1 [ETHOXZOLAMIDE]	Compound NOT metabolized
CCc1cccc2c3c([nH]c12)C(CC)(CC(=O)O)OCC3 (stereo not given) [ETODOLAC]	Compound NOT metabolized

Experiment: as §1, with “WLS-220” for “Z-020”, “human” for “rabbit”, “ERS12561769” for “ERS12561819”
Conditions: 2 µM

Compound	Bacterial Biotransformation
CN(C)CCOC(C)(c1ccccc1)c1ccccn1.O=C(O)CCC(=O)O (stereo not given) [DOXYLAMINE SUCCINATE]	Compound NOT metabolized
Br.CN1CCC[C@@H]1Cc1c[nH]c2ccc(CCS(=O)(=O)c3ccccc3)cc12 [ELETRIPTAN HYDROBROMIDE]	Compound metabolized
CCOc1ccc2nc(S(N)(=O)=O)sc2c1 [ETHOXZOLAMIDE]	Compound NOT metabolized
CCc1cccc2c3c([nH]c12)C(CC)(CC(=O)O)OCC3 (stereo not given) [ETODOLAC]	Compound metabolized

Conditions: human gut metagenome, 24 h, 2 µM
Remark: another data set of the same source

Compound	Bacterial Biotransformation
CN(C)CCOC(C)(c1ccccc1)c1ccccn1.O=C(O)CCC(=O)O (stereo not given) [DOXYLAMINE SUCCINATE]	Compound NOT metabolized
Br.CN1CCC[C@@H]1Cc1c[nH]c2ccc(CCS(=O)(=O)c3ccccc3)cc12 [ELETRIPTAN HYDROBROMIDE]	Compound metabolized
CCOc1ccc2nc(S(N)(=O)=O)sc2c1 [ETHOXZOLAMIDE]	Compound NOT metabolized
CCc1cccc2c3c([nH]c12)C(CC)(CC(=O)O)OCC3 (stereo not given) [ETODOLAC]	Compound metabolized

Conditions: human gut metagenome, 24 h, 2 µM
Remark: another data set of the same source

Compound	Bacterial Biotransformation
CN(C)CCOC(C)(c1ccccc1)c1ccccn1.O=C(O)CCC(=O)O (stereo not given) [DOXYLAMINE SUCCINATE]	Compound NOT metabolized
Br.CN1CCC[C@@H]1Cc1c[nH]c2ccc(CCS(=O)(=O)c3ccccc3)cc12 [ELETRIPTAN HYDROBROMIDE]	Compound metabolized
CCOc1ccc2nc(S(N)(=O)=O)sc2c1 [ETHOXZOLAMIDE]	Compound metabolized
CCc1cccc2c3c([nH]c12)C(CC)(CC(=O)O)OCC3 (stereo not given) [ETODOLAC]	Compound metabolized

Experiment: as §1, with “Z-003” for “Z-020”, “pig” for “rabbit”, “ERS12561803” for “ERS12561819”
Conditions: 2 µM

Compound	Bacterial Biotransformation
CN(C)CCOC(C)(c1ccccc1)c1ccccn1.O=C(O)CCC(=O)O (stereo not given) [DOXYLAMINE SUCCINATE]	Compound NOT metabolized
Br.CN1CCC[C@@H]1Cc1c[nH]c2ccc(CCS(=O)(=O)c3ccccc3)cc12 [ELETRIPTAN HYDROBROMIDE]	Compound NOT metabolized
CCOc1ccc2nc(S(N)(=O)=O)sc2c1 [ETHOXZOLAMIDE]	Compound NOT metabolized
CCc1cccc2c3c([nH]c12)C(CC)(CC(=O)O)OCC3 (stereo not given) [ETODOLAC]	Compound NOT metabolized

Conditions: human gut metagenome, 24 h, 2 µM
Remark: another data set of the same source

Compound	Bacterial Biotransformation
CN(C)CCOC(C)(c1ccccc1)c1ccccn1.O=C(O)CCC(=O)O (stereo not given) [DOXYLAMINE SUCCINATE]	Compound NOT metabolized
Br.CN1CCC[C@@H]1Cc1c[nH]c2ccc(CCS(=O)(=O)c3ccccc3)cc12 [ELETRIPTAN HYDROBROMIDE]	Compound metabolized
CCOc1ccc2nc(S(N)(=O)=O)sc2c1 [ETHOXZOLAMIDE]	Compound NOT metabolized
CCc1cccc2c3c([nH]c12)C(CC)(CC(=O)O)OCC3 (stereo not given) [ETODOLAC]	Compound metabolized

Conditions: human gut metagenome, 24 h, 2 µM
Remark: another data set of the same source

Compound	Bacterial Biotransformation
CN(C)CCOC(C)(c1ccccc1)c1ccccn1.O=C(O)CCC(=O)O (stereo not given) [DOXYLAMINE SUCCINATE]	Compound NOT metabolized
Br.CN1CCC[C@@H]1Cc1c[nH]c2ccc(CCS(=O)(=O)c3ccccc3)cc12 [ELETRIPTAN HYDROBROMIDE]	Compound metabolized
CCOc1ccc2nc(S(N)(=O)=O)sc2c1 [ETHOXZOLAMIDE]	Compound NOT metabolized
CCc1cccc2c3c([nH]c12)C(CC)(CC(=O)O)OCC3 (stereo not given) [ETODOLAC]	Compound metabolized

Conditions: human gut metagenome, 24 h, 2 µM
Remark: another data set of the same source

Compound	Bacterial Biotransformation
CN(C)CCOC(C)(c1ccccc1)c1ccccn1.O=C(O)CCC(=O)O (stereo not given) [DOXYLAMINE SUCCINATE]	Compound NOT metabolized
Br.CN1CCC[C@@H]1Cc1c[nH]c2ccc(CCS(=O)(=O)c3ccccc3)cc12 [ELETRIPTAN HYDROBROMIDE]	Compound NOT metabolized
CCOc1ccc2nc(S(N)(=O)=O)sc2c1 [ETHOXZOLAMIDE]	Compound NOT metabolized
CCc1cccc2c3c([nH]c12)C(CC)(CC(=O)O)OCC3 (stereo not given) [ETODOLAC]	Compound metabolized

Experiment: as §1, with “WLS-007” for “Z-020”, “human” for “rabbit”, “ERS12561742” for “ERS12561819”
Conditions: 2 µM

Compound	Bacterial Biotransformation
CN(C)CCOC(C)(c1ccccc1)c1ccccn1.O=C(O)CCC(=O)O (stereo not given) [DOXYLAMINE SUCCINATE]	Compound NOT metabolized
Br.CN1CCC[C@@H]1Cc1c[nH]c2ccc(CCS(=O)(=O)c3ccccc3)cc12 [ELETRIPTAN HYDROBROMIDE]	Compound metabolized
CCOc1ccc2nc(S(N)(=O)=O)sc2c1 [ETHOXZOLAMIDE]	Compound NOT metabolized
CCc1cccc2c3c([nH]c12)C(CC)(CC(=O)O)OCC3 (stereo not given) [ETODOLAC]	Compound metabolized

Conditions: human gut metagenome, 24 h, 2 µM
Remark: another data set of the same source

Compound	Bacterial Biotransformation
CN(C)CCOC(C)(c1ccccc1)c1ccccn1.O=C(O)CCC(=O)O (stereo not given) [DOXYLAMINE SUCCINATE]	Compound NOT metabolized
Br.CN1CCC[C@@H]1Cc1c[nH]c2ccc(CCS(=O)(=O)c3ccccc3)cc12 [ELETRIPTAN HYDROBROMIDE]	Compound metabolized
CCOc1ccc2nc(S(N)(=O)=O)sc2c1 [ETHOXZOLAMIDE]	Compound NOT metabolized
CCc1cccc2c3c([nH]c12)C(CC)(CC(=O)O)OCC3 (stereo not given) [ETODOLAC]	Compound metabolized

Experiment: as §1, with “WLS-310” for “Z-020”, “human” for “rabbit”, “ERS12561785” for “ERS12561819”
Conditions: 2 µM

Compound	Bacterial Biotransformation
CN(C)CCOC(C)(c1ccccc1)c1ccccn1.O=C(O)CCC(=O)O (stereo not given) [DOXYLAMINE SUCCINATE]	Compound NOT metabolized
Br.CN1CCC[C@@H]1Cc1c[nH]c2ccc(CCS(=O)(=O)c3ccccc3)cc12 [ELETRIPTAN HYDROBROMIDE]	Compound metabolized
CCOc1ccc2nc(S(N)(=O)=O)sc2c1 [ETHOXZOLAMIDE]	Compound NOT metabolized
CCc1cccc2c3c([nH]c12)C(CC)(CC(=O)O)OCC3 (stereo not given) [ETODOLAC]	Compound metabolized

Conditions: human gut metagenome, 24 h, 2 µM
Remark: another data set of the same source

Compound	Bacterial Biotransformation
CN(C)CCOC(C)(c1ccccc1)c1ccccn1.O=C(O)CCC(=O)O (stereo not given) [DOXYLAMINE SUCCINATE]	Compound NOT metabolized
Br.CN1CCC[C@@H]1Cc1c[nH]c2ccc(CCS(=O)(=O)c3ccccc3)cc12 [ELETRIPTAN HYDROBROMIDE]	Compound NOT metabolized
CCOc1ccc2nc(S(N)(=O)=O)sc2c1 [ETHOXZOLAMIDE]	Compound NOT metabolized
CCc1cccc2c3c([nH]c12)C(CC)(CC(=O)O)OCC3 (stereo not given) [ETODOLAC]	Compound metabolized

Experiment: as §1, with “Z-030” for “Z-020”, “mouse” for “rabbit”, “ERS12561829” for “ERS12561819”
Conditions: 2 µM

Compound	Bacterial Biotransformation
CN(C)CCOC(C)(c1ccccc1)c1ccccn1.O=C(O)CCC(=O)O (stereo not given) [DOXYLAMINE SUCCINATE]	Compound NOT metabolized
Br.CN1CCC[C@@H]1Cc1c[nH]c2ccc(CCS(=O)(=O)c3ccccc3)cc12 [ELETRIPTAN HYDROBROMIDE]	Compound NOT metabolized
CCOc1ccc2nc(S(N)(=O)=O)sc2c1 [ETHOXZOLAMIDE]	Compound NOT metabolized
CCc1cccc2c3c([nH]c12)C(CC)(CC(=O)O)OCC3 (stereo not given) [ETODOLAC]	Compound NOT metabolized
